Results on seven compounds are retold here after patent US4252808A, “β-Lactam antibacterial agents, their use in pharmaceutical compositions, the process for their preparation and intermediates for use in that process” (Beecham Group Limited, priority 1978, dated 1981).

Format in all cases: cell-based
Test [1] relates to B. subtilis. Nature of the test: MIC, nutrient agar. To be noted: Bacillus subtilis.
Test [2] deals with Staph. aureus Oxford. Nature of the test: MIC, nutrient agar. To be noted: Staphylococcus aureus.
Test [3] has as its system Staph. aureus Russell. Nature of the test: MIC, nutrient agar. To be noted: Staphylococcus aureus, Staph. aureus Russell (lactamase-producing strain). The text has this:
*Lactamase-producing strain
*lactamase producing strain

The subject of test [4] is β-Haemolytic Strep CN10. Nature of the test: MIC, nutrient agar.
The test system of test [5] is Staph. aureus Oxford. Nature of the test: MIC, nutrient broth (10^-4 dilution). The note with it: Staphylococcus aureus.
Test [6] concerns Staph. aureus Russell. In words: MIC, nutrient broth (10^-4 dilution). The note with it: Staphylococcus aureus, Staph. aureus Russell (lactamase producing strain). The text has this:
*Lactamase producing strains
*Lactamase producing strain

For test [7], the system named is E. coli JT 1. In words: MIC, nutrient broth (10^-4 dilution). To be noted: Escherichia coli, JT1.
Test [8] has as its system E. coli NCTC 10418. Nature of the test: MIC, nutrient broth (10^-4 dilution). The note with it: Escherichia coli, NCTC10418.
For test [9], the system named is E. coli JT 1. Nature of the test: MIC, nutrient broth. The note with it: Escherichia coli, JT1.
Test [10] concerns E. coli NCTC 10418. In words: MIC, nutrient broth. The note with it: Escherichia coli, NCTC10418.
For test [11], the system named is Staph. aureus Oxford. Nature of the test: MIC, nutrient broth. The note with it: Staphylococcus aureus.
Test [12] relates to Staph. aureus Russell. Nature of the test: MIC, nutrient broth. To be noted: Staphylococcus aureus, Staph. aureus Russell (lactamase producing strain). An excerpt: | *lactamase producing strain
The test system of test [13] is E. coli JT 4. In words: MIC, nutrient agar. The note with it: Escherichia coli, JT4.
Test [14] relates to Ps. aeruginosa Dalgleish. Nature of the test: MIC, nutrient agar. To be noted: Pseudomonas aeruginosa, Ps. aeruginosa Dalgleish 10^-2.
Test [15] concerns Klebsiella aerogenes A. In words: MIC, nutrient agar.
Test [16] deals with Enterobacter cloacae Nl. Nature of the test: MIC, nutrient agar.
The subject of test [17] is P. rettgeri. In words: MIC, nutrient agar. To be noted: Providencia rettgeri.
Test [18] relates to P. mirabilis C977. In words: MIC, nutrient agar. To be noted: Proteus mirabilis.
Test [19] deals with P. morganii. In words: MIC, nutrient agar. To be noted: Morganella morganii.
Test [20] relates to B. subtilis. Nature of the test: MIC, serial dilution in nutrient agar with 5% horse blood (Table 1). To be noted: Bacillus subtilis, inoculum 0.001 ml undiluted broth culture. The procedure: (§1) | *Serial dilution in nutrient agar containing 5% horse blood, inoculum | 0.001 ml undiluted broth culture.
The subject of test [21] is E. coli JT 4. The description is as above. To be noted: Escherichia coli, JT4, inoculum 0.001 ml undiluted broth culture. Here is the method:
as §1

For test [22], the system named is K. aerogenes A. The description is as above. To be noted: Klebsiella aerogenes, inoculum 0.001 ml undiluted broth culture. The procedure: as §1
Test [23] has as its system P. mirabilis C 977. Described as above. The note with it: Proteus mirabilis, C977, inoculum 0.001 ml undiluted broth culture. Here is the method:
as §1

The subject of test [24] is P. morganii. Described as above. The note with it: Morganella morganii, inoculum 0.001 ml undiluted broth culture. Here is the method: as §1
The test system of test [25] is P. rettgeri. The test is described as above. To be noted: Providencia rettgeri, inoculum 0.001 ml undiluted broth culture. The procedure:
as §1

Test [26] concerns S. aureus 1517. The test is described as above. To be noted: Staphylococcus aureus, inoculum 0.001 ml undiluted broth culture. Here is the method:
as §1

Test [27] deals with S. aureus Oxford. The description is as above. The note with it: Staphylococcus aureus, inoculum 0.001 ml undiluted broth culture. The procedure:
as §1

Test [28] deals with S. aureus Russell. Described as above. The note with it: Staphylococcus aureus, inoculum 0.001 ml undiluted broth culture. The procedure: as §1
Test [29] relates to S. faecalis 1. Described as above. The note with it: Enterococcus faecalis, inoculum 0.001 ml undiluted broth culture. The procedure:
as §1

The test system of test [30] is S. pyogenes CN 10. Described as above. The note with it: Streptococcus pyogenes, CN10, inoculum 0.001 ml undiluted broth culture. The procedure: as §1
Test [31] deals with B. subtilis. In words: MIC, serial dilution in DST agar with 10% horse blood (Table 2). The note with it: Bacillus subtilis, inoculum diluted 10^-2. An excerpt:
(§2) *Serial dilution in DST agar containing 10% horse blood, inoculum 0.001 m
(§3) broth culture diluted 10^-2 for Grampositive and 10^-4 for
(§4) Gramnegative organisms.

The test system of test [32] is E. cloacae Nl. Described as above. To be noted: Enterobacter cloacae, inoculum diluted 10^-4.
Source text: as §2, §3, §4

Test [33] concerns E. coli 0111. The description is as above. The note with it: Escherichia coli, inoculum diluted 10^-4.
Source text: as §2, §3, §4

For test [34], the system named is K. aerogenes A. The test is described as above. The note with it: Klebsiella aerogenes, inoculum diluted 10^-4.
Source text: as §2, §3, §4

The test system of test [35] is P. mirabilis C 977. Described as above. The note with it: Proteus mirabilis, C977, inoculum diluted 10^-4.
Source text: as §2, §3, §4

For test [36], the system named is P. morganii 1580. The description is as above. To be noted: Morganella morganii, inoculum diluted 10^-4.
Source text: as §2, §3, §4

Test [37] deals with P. rettgeri WM 16. The description is as above. To be noted: Providencia rettgeri, WM16, inoculum diluted 10^-4.
Source text: as §2, §3, §4

Test [38] deals with S. aureues Russell. Described as above. To be noted: Staphylococcus aureus, inoculum diluted 10^-2.
Source text: as §2, §3, §4

In test [39] the test system is S. aureus 1517. Described as above. To be noted: Staphylococcus aureus, inoculum diluted 10^-2.
Source text: as §2, §3, §4

For test [40], the system named is S. aureus Oxford. The description is as above. The note with it: Staphylococcus aureus, inoculum diluted 10^-2.
Source text: as §2, §3, §4

The subject of test [41] is S. faecalis 1. The description is as above. The note with it: Enterococcus faecalis, inoculum diluted 10^-2.
Source text: as §2, §3, §4

Test [42] relates to S. pneumoniae CN 33. The description is as above. To be noted: Streptococcus pneumoniae, CN33, inoculum diluted 10^-2.
Source text: as §2, §3, §4

The subject of test [43] is S. pyogenes CN 10. Described as above. The note with it: Streptococcus pyogenes, CN10, inoculum diluted 10^-2.
Source text: as §2, §3, §4

Test [44] deals with E. cloacae Nl. Nature of the test: MIC, serial dilution in nutrient agar with 5% horse blood (Table 1). The note with it: Enterobacter cloacae, inoculum 0.001 ml undiluted broth culture. The procedure: as §1

SMILES strings stand for the structures. Converted amounts (≈) assume the structure as drawn. Structures can show the parent of a compound that is named as a salt.

As for `O=C(COc1ccccc1)N[C@@H]1C(=O)N2C(C(=O)O)=Cc3cnnn3[C@H]12` [Compound 11, (3aR,4S)4,5-dihydro-5-oxo-4-phenoxyacetamido-3aH-azeto-[1,2-a]v-triazolo[3,4-c]pyrimidine-7-carboxylic acid], the minimum inhibitory concentration (MIC) stood at 2.5 µg/mL (≈ 7.04 µM) in test [1], 10 µg/mL (≈ 28.1 µM) in [2], 50 µg/mL (≈ 141 µM) in test [3] and 10 µg/mL (≈ 28.1 µM) in [4].
With `O=C(O)C1=Cc2c(-c3ccccc3)nnn2[C@@H]2[C@H](NC(=O)[C@H](O)c3ccccc3)C(=O)N12` [Compound 18, (3aR,4S) 4,5-Dihydro-5-oxo-9-phenyl-4-D-mandelylamino-3aH-azeto-[1,2a]v-triazolo[3,4-c]pyrimidine-7-carboxylic acid], the MIC was 31 µg/mL (≈ 71.9 µM) in test [5], 125 µg/mL (≈ 290 µM) in [6], 125 µg/mL (≈ 290 µM) in test [7] and 125 µg/mL (≈ 290 µM) in [8].
In the case of `N[C@@H](C(=O)N[C@@H]1C(=O)N2C(C(=O)O)=Cc3c(-c4ccccc4)nnn3[C@H]12)c1ccccc1` [Compound 24, (3aR,4S)-4,5-Dihydro-5-oxo-9-phenyl-4-D-α-phenylglycylamino-3aH-azeto[1,2-a]v-triazolo [3,4-c]pyrimidine-7-carboxylic acid, trifluoroacetic acid salt], the minimal inhibitory concentration (MIC) was 62 µg/mL in test [5], 125 µg/mL in [6], 125 µg/mL in [7] and 125 µg/mL in test [8].
For the compound `O=C(COc1ccccc1)N[C@@H]1C(=O)N2C(C(=O)O)=Cc3c(-c4ccc([N+](=O)[O-])cc4)nnn3[C@H]12` [Compound 33, (3aR,4S) 4,5-Dihydro-5-oxo-9-p-nitrophenyl-4-phenoxy-acetamido-3aH azeto[1,2-a]v-triazolo[3,4-c]pyrimidine-7-carboxylic acid], the MIC in test [9] was 500 µg/mL (≈ 1050 µM); in test [10], 500 µg/mL (≈ 1050 µM); in [11] it was 16 µg/mL (≈ 33.6 µM); in test [12] it was 31 µg/mL (≈ 65.1 µM).
As for `CC1=C(C(=O)O)N2C(=O)[C@@H](NC(=O)COc3ccccc3)[C@H]2n2nncc21` [Compound 41, (3aR,4S) 4,5-Dihydro-5-oxo-8-methyl-4-phenoxyacetamido-3aH azeto[1,2-a]v-triazolo[3,4-c]pyrimidine-7-carboxylate acid], the MIC was less than 0.2 µg/mL in [1]; 2.5 µg/mL (≈ 6.77 µM) in test [2]; 5 µg/mL (≈ 13.5 µM) in test [3]; 0.5 µg/mL (≈ 1.35 µM) in [4]; 100 µg/mL (≈ 271 µM) in [13]; 100 µg/mL (≈ 271 µM) in test [14]. Further, the MIC in test [15] was 100 µg/mL (≈ 271 µM); in test [16] it was 100 µg/mL (≈ 271 µM); in [17] it was 100 µg/mL (≈ 271 µM); in test [18], more than 100 µg/mL; in [19] it was more than 100 µg/mL.
On to `CC1=C(C(=O)O)N2C(=O)[C@@H](NC(=O)Cc3cccs3)[C@H]2n2nncc21` [Compound 43, (3aR,4S) 4,5-Dihydro-5-oxo-8-methyl-4-(2-thienylacetamido)-3aH-azeto[1,2-a]y-triazolo[3,4-c]pyrimidine-7-carboxylic acid], for which the MIC in [20] is less than 0.2 µg/mL; in test [21], more than 100 µg/mL; in test [22], 50 µg/mL (≈ 139 µM); in [23], 10 µg/mL (≈ 27.8 µM); in [24], more than 100 µg/mL; in [25], more than 100 µg/mL. For the same compound, the minimal inhibitory concentration (MIC) is 2.5 µg/mL (≈ 6.96 µM) in test [26]; 1 µg/mL (≈ 2.78 µM) in test [27]; 2.5 µg/mL (≈ 6.96 µM) in test [28]; 2.5 µg/mL (≈ 6.96 µM) in test [29]; less than 0.2 µg/mL in [30]; not above 0.2 µg/mL in [31]. Moreover, the minimal inhibitory concentration (MIC) in [32] was more than 100 µg/mL; in test [33], 10 µg/mL (≈ 27.8 µM); in [34], 2.5 µg/mL (≈ 6.96 µM); in [35], 2.5 µg/mL (≈ 6.96 µM); in test [36], 2.5 µg/mL (≈ 6.96 µM); in [37], more than 100 µg/mL. For the same compound, the MIC in test [38] is 1 µg/mL (≈ 2.78 µM); in test [39], 5 µg/mL (≈ 13.9 µM); in test [40], 2.5 µg/mL (≈ 6.96 µM); in test [41] it was 5 µg/mL (≈ 13.9 µM); in test [42], not above 0.2 µg/mL; in test [43], not above 0.2 µg/mL.
As for `CC1=C(C(=O)O)N2C(=O)[C@@H](NC(=O)C(C(=O)Oc3ccccc3)c3ccccc3)[C@H]2n2nncc21` (stereo partly drawn) [Compound 44, (3aR,4S) 4,5-Dihydro-5-oxo-8-methyl-4-DL (α-phenoxycarbonylphenyl-acetamido)-3aH-azeto[1,2-a]v-triazolo[3,4-c]pyrimidine-7-carboxylic acid], the MIC in [20] is 25 µg/mL (≈ 52.8 µM); in [44] it was more than 100 µg/mL; in [21], more than 100 µg/mL; in [22], 50 µg/mL (≈ 106 µM); in test [23], 50 µg/mL (≈ 106 µM); in test [24] it was more than 100 µg/mL. Also, the minimum inhibitory concentration (MIC) in test [25] is more than 50 µg/mL; in test [26] it was more than 100 µg/mL; in test [27], 50 µg/mL (≈ 106 µM); in test [28] it was 100 µg/mL (≈ 211 µM); in test [29], more than 100 µg/mL; in test [31] it was 25 µg/mL (≈ 52.8 µM). The minimum inhibitory concentration (MIC) in [32] is 50 µg/mL (≈ 106 µM); in test [33], 10 µg/mL (≈ 21.1 µM); in test [34], 10 µg/mL (≈ 21.1 µM); in test [35] it was 10 µg/mL (≈ 21.1 µM); in [36] it was 10 µg/mL (≈ 21.1 µM); in test [37], 10 µg/mL (≈ 21.1 µM). For the same compound, the minimum inhibitory concentration (MIC) in test [38] was 25 µg/mL (≈ 52.8 µM); in [39], 100 µg/mL (≈ 211 µM); in [40], 25 µg/mL (≈ 52.8 µM); in test [41] it was more than 100 µg/mL; in [42], 10 µg/mL (≈ 21.1 µM); in test [43] it was 10 µg/mL (≈ 21.1 µM).
